Assay results published in patent US20090176839A1, “FORMULATIONS OF 3-(6-(1-(2,2-DIFLUOROBENZO[D][1,3]DIOXOL-5-YL) CYCLOPROPANECARBOXAMIDO)-3-METHYLPYRIDIN-2-YL)BENZOIC ACID” (priority 2007, published 2009).

Experiments:
[1] = Acute oral toxicity study in rats; details: rat, in vivo, po
Protocol: (§1) The intended clinical route of administration is oral, thus oral toxicity studies were done in mice, rats and dogs. […] Effects of repeat oral dosing were assessed in rats and dogs in preliminary 7-day toxicity studies followed by a 14-day GLP1 toxicity studies.

rats = test: Acute oral toxicity study in rats; details: rats; single oral doses 500, 1000 or 2000 mg/kg
Protocol: as §1

[2] = Toxicokinetics in acute oral toxicity study in mice; assay type: in vivo; details: plasma
Text: Compound 1 was well absorbed in mice with time to reach maximum plasma concentrations (tmax) ranging from 0.5 to 2.0 hr. […] There were no significant gender-related effects in Compound 1 exposures noted.

[3] = Toxicokinetics in acute oral toxicity study in rats; assay type: in vivo
Text: Compound 1 was also well absorbed in rats with time to reach maximum plasma concentrations(tmax) ranging from 4.0 to 24.0 hr.

[4] = Toxicokinetics in 14-day oral toxicity study in rats; details: rat, in vivo, 600 mg/kg/day
Text: There were no major differences noted in TK parameters between males and females, or when comparing study Day 1 to study Day 14.

in vivo [5] = test: in vivo; parameters: species or system dogs; details: both sexes, dog
Protocol: (§2) One dog per gender was dosed orally with the vehicle (0.5% methylcellulose+0.5% Tween80 in water), or 25, 50, or 100 mg/kg/day Compound 1 for 7 consecutive days. The dose volume was 5 mL/kg/day for all dose groups. Plasma samples were collected on Days 1 and 7 for TK analysis and viability, clinical observations, body weights, feed consumption, clinical pathology (termination), organ weights, macroscopic observations, and microscopic pathology were evaluated.

dogs = test: in vivo; details: dog
Protocol: as §2

[6] = Toxicokinetics in 7-day dose range finding study in dogs; assay type: in vivo; details: 100 mg/kg/day; for Cmax: dog, plasma, oral
Protocol: as §2
The plasma AUC0-24 data on Day 1 was consistent with previously conducted single dose studies of Compound 1 in the dog.

[7] = target: T1, Thromboxane A2 (TXA2) receptor (TP receptor) (Homo sapiens, UniProt P21731); test: Radiolabel binding counter screen (MDS Pharma Services)
T1 construct: MDS Pharma Services MDSPS PT#: 1083321
T1 sequence (P21731 1-343): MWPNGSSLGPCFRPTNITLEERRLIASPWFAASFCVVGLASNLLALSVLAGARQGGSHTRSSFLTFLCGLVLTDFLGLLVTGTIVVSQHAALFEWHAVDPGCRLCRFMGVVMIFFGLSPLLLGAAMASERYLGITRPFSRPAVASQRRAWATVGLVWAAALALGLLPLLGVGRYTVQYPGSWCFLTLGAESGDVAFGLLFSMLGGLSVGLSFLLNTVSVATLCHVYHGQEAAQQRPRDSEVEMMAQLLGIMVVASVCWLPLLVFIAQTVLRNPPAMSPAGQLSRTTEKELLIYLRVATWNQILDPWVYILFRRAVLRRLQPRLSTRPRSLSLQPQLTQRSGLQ
Text: Compound 1 was counter screened against a broad panel of enzymes and receptors using radiolabel binding studies (see MDS Pharma Services, LeadProfiling and SpectrumScreen, MDSPS PT#: 1083321).

hERG = hERG (Homo sapiens, UniProt Q12809); test: hERG electrophysiological techniques; assay type: cell-based; details: variety of electrophysiological techniques
[8] = test system: gastrointestinal, respiratory, CNS, or cardiovascular systems; test: Safety pharmacology studies (ICH S7A/S7B battery); assay type: in vivo, rat, dog
[9] = Pharmacokinetics in cynomolgus monkeys; assay type: in vivo; details: monkey
Protocol: The pharmacokinetics of Compound 1 were assessed in the same species used in the toxicology studies: CD-1 mice, Sprague Dawley rats and beagle dogs. The pharmacokinetics of Compound 1 were also assessed in cynomolgus monkeys.

Solubility (statement) = assay type: physicochemical; details: aqueous medium
[10] = male, beagle, dog, in vivo, 200 mg/kg
in vivo [11] = details: rat, po
Protocol: Repeat-dose oral toxicity studies of 7- and 14-days duration have been conducted in rats (up to 600 mg/kg/day) and dogs (up to 200 mg/kg/day).

in vivo [12] = details: male, beagle, dog, 200 mg/kg

hERG, sequence (Q12809 whole entry): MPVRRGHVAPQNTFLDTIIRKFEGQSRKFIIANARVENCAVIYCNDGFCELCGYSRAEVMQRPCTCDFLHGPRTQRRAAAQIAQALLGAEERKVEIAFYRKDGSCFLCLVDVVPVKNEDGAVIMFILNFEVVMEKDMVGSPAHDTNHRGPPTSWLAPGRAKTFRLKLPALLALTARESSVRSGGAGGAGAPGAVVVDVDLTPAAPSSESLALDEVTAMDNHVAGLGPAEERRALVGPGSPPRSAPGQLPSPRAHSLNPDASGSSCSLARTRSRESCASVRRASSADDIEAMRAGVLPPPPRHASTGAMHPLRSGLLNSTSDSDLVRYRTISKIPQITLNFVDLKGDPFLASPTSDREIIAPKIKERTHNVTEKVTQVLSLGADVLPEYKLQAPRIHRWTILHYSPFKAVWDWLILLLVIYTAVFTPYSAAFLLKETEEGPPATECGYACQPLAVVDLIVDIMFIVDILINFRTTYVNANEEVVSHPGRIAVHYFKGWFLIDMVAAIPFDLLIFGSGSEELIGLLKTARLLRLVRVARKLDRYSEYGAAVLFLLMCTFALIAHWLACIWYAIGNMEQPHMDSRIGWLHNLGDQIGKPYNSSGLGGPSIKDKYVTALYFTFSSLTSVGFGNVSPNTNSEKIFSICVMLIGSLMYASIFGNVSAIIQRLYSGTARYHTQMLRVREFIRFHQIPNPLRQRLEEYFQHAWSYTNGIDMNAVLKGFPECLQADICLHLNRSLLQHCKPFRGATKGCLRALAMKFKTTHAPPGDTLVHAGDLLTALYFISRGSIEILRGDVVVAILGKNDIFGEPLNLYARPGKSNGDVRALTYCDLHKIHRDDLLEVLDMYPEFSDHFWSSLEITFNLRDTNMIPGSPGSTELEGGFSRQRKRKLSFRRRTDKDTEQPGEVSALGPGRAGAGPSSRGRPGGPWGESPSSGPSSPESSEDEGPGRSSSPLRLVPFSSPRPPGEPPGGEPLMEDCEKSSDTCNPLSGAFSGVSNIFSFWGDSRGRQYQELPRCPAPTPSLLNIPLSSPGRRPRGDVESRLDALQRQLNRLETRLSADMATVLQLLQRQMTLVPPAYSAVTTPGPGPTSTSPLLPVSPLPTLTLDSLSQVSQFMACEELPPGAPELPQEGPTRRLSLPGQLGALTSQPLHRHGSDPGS

With Cc1ccc(NC(=O)C2(c3ccc4c(c3)OC(F)(F)O4)CC2)nc1-c1cccc(C(=O)O)c1 [Compound 1, 3-(6-(1-(2,2-difluorobenzo[d][1,3]dioxol-5-yl)cyclopropanecarboxamido)-3-methylpyridin-2-yl)benzoic acid] as the compound, how does the MTD at 14 days [1] read?
Its MTD at 14 days is > 2000 mg/kg.

What about the NOAEL at 14 days [1] of the same compound?
The NOAEL at 14 days was > 2000 mg/kg.

And the “organ weights and gross observations at necropsy” value (rats)?
Its value is “no effects on organ weights and no gross observations”.

What about the Cmax ([2]; CD-1, mouse, 2000 mg/kg, Female) of the same compound?
The Cmax was 325 µg/mL.

What about the AUC(0-t) ([2]; CD-1, mouse, 2000 mg/kg, Female, read-out: AUC0-24 h) of the same compound?
Its AUC(0-t) is 2900 µg·h/mL.

What about the Tmax ([2]; CD-1, mouse, 2000 mg/kg, Female, read-out: tmax) of the same compound?
Its Tmax is 1 h.

What about the Cmax ([2]; CD-1, mouse, 2000 mg/kg, Male) of the same compound?
Its Cmax is 264 µg/mL.

And the AUC(0-t) ([2]; CD-1, mouse, 2000 mg/kg, Male, read-out: AUC0-24 h)?
The AUC(0-t) was 2680 µg·h/mL.

What about the Tmax ([2]; CD-1, mouse, 2000 mg/kg, Male, read-out: tmax) of the same compound?
The Tmax was 1 h.

And the half-life ([2]; both sexes, mouse, 500 to 2000 mg/kg, read-out: elimination half-life (t1/2))?
The half-life was 4.1 to 8.6 h.

What about the Tmax ([2]; both sexes, mouse, 500 to 2000 mg/kg, read-out: time to reach maximum plasma concentrations (tmax)) of the same compound?
Its Tmax is 0.5 to 2 h.

What about the AUC(0-t) ([2]; female, mouse, females at 500 mg/kg, read-out: AUC0-24hr) of the same compound?
The AUC(0-t) was 1840 µg·h/mL.

And the Cmax ([2]; female, mouse, females at 2000 mg/kg)?
Its Cmax is 325 µg/mL.

What about the Cmax ([2]; male, mouse, males at 500 mg/kg) of the same compound?
Its Cmax is 142 µg/mL.

What about the “AUC0-24hr values, females vs. males” value ([3]; 500 mg/kg dose group) of the same compound?
Its value is “more than 2 fold”.

What about the Cmax ([3]; Sprague Dawley, rat, plasma, po, 2000 mg/kg, Male) of the same compound?
The Cmax was 306 µg/mL.

And the AUC(0-t) ([3]; Sprague Dawley, rat, plasma, po, 2000 mg/kg, Male, read-out: AUC0-24 h)?
Its AUC(0-t) is 6110 µg·h/mL.

And the Tmax ([3]; Sprague Dawley, rat, plasma, po, 2000 mg/kg, Male, read-out: tmax)?
Its Tmax is 24 h.

And the Tmax ([3]; both sexes, rat, plasma, po, 500 to 2000 mg/kg, read-out: time to reach maximum plasma concentrations (tmax))?
Its Tmax is 4 to 24 h.

What about the half-life ([3]; both sexes, rat, plasma, po, could not be calculated at 1000 and 2000 mg/kg, read-out: elimination half-life (t1/2)) of the same compound?
Its half-life is 9.4 to 10.8 h.

And the Cmax ([3]; male, rat, plasma, po, males at 500 mg/kg)?
Its Cmax is 135 µg/mL.

What about the AUC(0-t) ([3]; male, rat, plasma, po, males at 500 mg/kg, read-out: AUC0-24hr) of the same compound?
The AUC(0-t) was 1390 µg·h/mL.

What about the Cmax ([3]; male, rat, plasma, po, males at 2000 mg/kg) of the same compound?
The Cmax was 306 µg/mL.

What about the Cmax ([3]; rat, plasma, po, 2000 mg/kg, Female) of the same compound?
The Cmax was 305 µg/mL.

And the AUC(0-t) ([3]; rat, plasma, po, 2000 mg/kg, Female, read-out: AUC0-24 h)?
Its AUC(0-t) is 6750 µg·h/mL.

And the Tmax ([3]; rat, plasma, po, 2000 mg/kg, Female, read-out: tmax)?
The Tmax was 10 h.

And the AUC(0-t) ([4]; both sexes, rats, at the NOAEL (600 mg/kg/day), read-out: average AUC0-24hr)?
Its AUC(0-t) is 3950 µg·h/mL.

What about the Cmax ([4]; both sexes, rats, at the NOAEL (600 mg/kg/day), read-out: average Cmax) of the same compound?
The Cmax was 222 µg/mL.

And the Tmax ([4]; female, Sprague Dawley, Study Day 1, Female)?
Its Tmax is 4 h.

What about the AUC(0-t) ([4]; female, Sprague Dawley, Study Day 1, Female, read-out: AUC0-24 hr) of the same compound?
Its AUC(0-t) is 4430 µg·h/mL.

What about the Cmax ([4]; female, Sprague Dawley, Study Day 1, Female, read-out: Cmax) of the same compound?
Its Cmax is 273 µg/mL.

And the Tmax ([4]; female, Sprague Dawley, Study Day 14, Female)?
Its Tmax is 10 h.

And the AUC(0-t) ([4]; female, Sprague Dawley, Study Day 14, Female, read-out: AUC0-24 hr)?
The AUC(0-t) was 5500 µg·h/mL.

What about the Cmax ([4]; female, Sprague Dawley, Study Day 14, Female, read-out: Cmax) of the same compound?
The Cmax was 272 µg/mL.

What about the Tmax ([4]; male, Sprague Dawley, Study Day 1, Male) of the same compound?
The Tmax was 10 h.

What about the AUC(0-t) ([4]; male, Sprague Dawley, Study Day 1, Male, read-out: AUC0-24 hr) of the same compound?
Its AUC(0-t) is 2660 µg·h/mL.

What about the Cmax ([4]; male, Sprague Dawley, Study Day 1, Male, read-out: Cmax) of the same compound?
The Cmax was 164 µg/mL.

What about the Tmax ([4]; male, Sprague Dawley, Study Day 14, Male) of the same compound?
The Tmax was 10 h.

And the AUC(0-t) ([4]; male, Sprague Dawley, Study Day 14, Male, read-out: AUC0-24 hr)?
Its AUC(0-t) is 3220 µg·h/mL.

What about the Cmax ([4]; male, Sprague Dawley, Study Day 14, Male, read-out: Cmax) of the same compound?
Its Cmax is 181 µg/mL.

What about the NOAEL at 7 days (in vivo [5]) of the same compound?
Its NOAEL at 7 days is 100 mg/kg/day.

What about the “food consumption, hematologies, coagulations parameters, ECG measurements” value (dogs) of the same compound?
Its value is “no effects”.

And the “gross lesions and histopathological findings” value (dogs)?
Its value is “no test article related gross lesions or histopathological findings”.

What about the body weight loss (dogs; 100 mg/kg/day) of the same compound?
Its body weight loss is 0.3 kg.

And the average plasma concentrations ([6]; female)?
The average plasma concentrations was 38 µM.

And the average plasma concentrations ([6]; male)?
Its average plasma concentrations is 16 µM.

And the Cmax ([6]; female)?
Its Cmax is ~130 µM.

What about the Cmax ([6]; male) of the same compound?
The Cmax was ~110 µM.

And the Ki [7]?
Its Ki is ~3 µM.

And the IC50 (hERG)?
The IC50 was ≥ 30 µM.

And the “cardiovascular or respiratory findings” value ([8]; oral doses up to 1000 mg/kg in the rat and 200 mg/kg in the dog)?
Its value is “no cardiovascular or respiratory findings”.

And the “adverse effects on gastrointestinal, respiratory, CNS, or cardiovascular systems” value ([8]; oral formulations)?
Its value is “unlikely to cause adverse effects”.

What about the clearance [9] of the same compound?
Its clearance is “very low clearance”.

And the solubility (Solubility (statement))?
The solubility was “low solubility”.

What about the F [10] of the same compound?
Its F is 20%.

And the tlast [10]?
The tlast was 48 h.

What about the NOAEL at 14 days (in vivo [11]) of the same compound?
Its NOAEL at 14 days is 600 mg/kg/day.

And the AUC(0-inf) (in vivo [12])?
Its AUC(0-inf) is 288 µg·h/mL.

What about the Cmax (in vivo [12]) of the same compound?
The Cmax was 52 µg/mL.

And the concentration at 48 hr (in vivo [12])?
Its concentration at 48 hr is 0.063 µg/mL.

And the Tmax (in vivo [12]; po)?
Its Tmax is 1.7 h.

What about the half-life (in vivo [12]; po) of the same compound?
The half-life was 6.1 h.
